Test: xn = mol fraction of the nth substance listed, in the solute-free solvent

NC(N)=C([N+](=O)[O-])[N+](=O)[O-] + CS(C)=O + O=C1CCCC1
solubility (g/100 g solution)
Details	293.15 K	298.15 K	303.15 K	308.15 K	313.15 K	318.15 K	323.15 K	328.15 K	333.15 K
x2 = 0.1177	3.67	3.8	4.06	4.31	4.57	4.86	5.16	5.5	5.84
x2 = 0.2308	7.45	7.83	8.19	8.56	8.97	9.37	9.83	10.2	10.7
x2 = 0.3397	11.5	12.1	12.6	13	13.5	14	14.5	15	15.6
x2 = 0.4445	15.2	15.8	16.2	16.6	17.1	17.6	18.3	18.9	19.5
x2 = 0.5455	18.5	19.2	19.7	20.1	20.6	21.1	21.7	22.3	22.9
x2 = 0.6429	21.3	21.9	22.4	22.9	23.4	24	24.6	25.1	25.8
x2 = 0.7369	23.8	24.6	25	25.5	26.1	26.6	27.2	27.8	28.5
x2 = 0.8276	26	26.5	27	27.4	28.1	28.6	29.2	29.8	30.4
x2 = 0.9153	27.7	28.5	29	29.4	30	30.5	31.1	31.8	32.4

Nc1cc(-c2ccncc2)c[nH]c1=O + CN(C)C=O + O
solubility (g/100 g solution)
Details	278.15 K	283.15 K	288.15 K	293.15 K	298.15 K	303.15 K	308.15 K	313.15 K	318.15 K	323.15 K
x2 = 0.02666	0.00203	0.00236	0.0028	0.00324	0.00375	0.00428	0.00488	0.00552	0.00624	0.00705
x2 = 0.05806	0.00422	0.00489	0.00574	0.00661	0.00759	0.00861	0.00975	0.011	0.0123	0.0139
x2 = 0.09556	0.00683	0.00794	0.00916	0.0106	0.0122	0.014	0.0156	0.0177	0.0198	0.0224
x2 = 0.1412	0.00979	0.0113	0.0131	0.015	0.0171	0.0195	0.0221	0.0248	0.0277	0.0316
x2 = 0.1978	0.0124	0.0143	0.0167	0.0193	0.022	0.0249	0.0283	0.0322	0.036	0.0407
x2 = 0.27	0.0152	0.0177	0.0208	0.0238	0.0272	0.0308	0.0348	0.0395	0.0442	0.0497
x2 = 0.3652	0.0161	0.0195	0.0231	0.0268	0.0307	0.035	0.0397	0.0451	0.0506	0.0572
x2 = 0.4965	0.0192	0.0227	0.0267	0.0306	0.035	0.0398	0.0452	0.0516	0.0579	0.0654
x2 = 0.6893	0.0186	0.0221	0.0258	0.0305	0.0349	0.0402	0.0458	0.0523	0.0593	0.0673

O=c1cc(CBr)c2ccccc2[nH]1 + CCO + O
solubility (g/100 g solution)
Details	278.15 K	283.15 K	288.15 K	293.15 K	298.15 K	303.15 K	308.15 K	313.15 K	318.15 K
x2 = 0.04165	0.0134	0.0174	0.023	0.0295	0.038	0.0476	0.0598	0.0753	0.0924
x2 = 0.08908	0.0233	0.0297	0.037	0.0455	0.0569	0.0694	0.0854	0.104	0.123
x2 = 0.1436	0.0341	0.042	0.0509	0.0622	0.075	0.0906	0.106	0.127	0.151
x2 = 0.2068	0.0469	0.0559	0.0666	0.0787	0.0931	0.11	0.128	0.148	0.172
x2 = 0.2812	0.0609	0.0715	0.0837	0.0964	0.112	0.13	0.148	0.168	0.193
x2 = 0.3698	0.0732	0.0845	0.0974	0.111	0.128	0.145	0.163	0.184	0.209
x2 = 0.4772	0.0832	0.0948	0.109	0.123	0.138	0.157	0.176	0.196	0.221
x2 = 0.6101	0.0917	0.103	0.116	0.131	0.147	0.164	0.182	0.202	0.224
x2 = 0.7788	0.0963	0.108	0.12	0.134	0.15	0.165	0.182	0.201	0.219

CC(C)C(=O)Nc1ccc([N+](=O)[O-])c(C(F)(F)F)c1 + C1CCOC1 + CC(C)O
solubility (g/100 g solution)
Details	278.15 K	283.15 K	288.15 K	293.15 K	298.15 K	303.15 K	308.15 K	313.15 K	318.15 K	323.15 K
x2 = 0.1	22.2	24.2	27	30.4	34.3	39	43.5	47.9	52	56.1
x2 = 0.2	31.7	33.5	35.9	38.8	42.4	46.1	49.8	53.3	56.9	61
x2 = 0.3	36.9	40.3	43.7	47	50.5	53.9	57.1	60.3	63.6	66.8
x2 = 0.4	40.4	43.2	46.4	50.1	53.3	56.9	60.1	63.1	65.9	68.8
x2 = 0.5	43.9	46.5	49.6	52.6	55.8	59.1	62.3	65.3	68.1	70.9
x2 = 0.6	47.4	49.7	52.6	55.8	58.7	61.9	64.7	67.6	70.2	73.3
x2 = 0.7	50.4	51.9	54.7	57.8	61.2	64.4	67.1	70	72.6	75.4
x2 = 0.8	52.5	54.5	57.4	60.7	63.7	66.4	69	71.8	74.2	77.1
x2 = 0.9	55.2	57.1	59.7	62.6	65.8	68.7	71.3	73.7	75.9	78.2
